The record followed here is patent US7261906B2, “Anti-cancer therapy agent of arsenic hexoxide (As4O6) of a natural chemical substance and its pharmaceutical composition” (priority 1998, dated 2007).

One experiment concerns 3T3-fibroblast cells. Put plainly: Cytotoxicity in 3T3-fibroblast cells, time course (XTT method). The class given is cell-based, murine. Here is the method:
Cloned tumor cells of P388 leukemia, L1210 leukemia, L5178Y lymphoma, Colon26-M3.1 carcinoma, and B16-BL6 melanoma, from mice, and K562 leukemia, liver carcinoma HEP-G2, Hs578T breast cancer, AN-3-CA adenocarcinoma, DLD colon carcinoma, and HeLa epitheloid carcinoma, from human beings, were cultured in EMM, DMEM, or RMPI-1640 culture media containing 7.5% fetal bovine serum (FBS), as described in ATCC manual. […] Tumor cells in test wells were incubated in 5% CO2 incubator at 37° C. for 2 days.
For further study of the cytotoxicity of each substance on cloned tumor cells, 3T3-fibroblast cells were cultured in test wells as described in experiment 1.

Experiment [1] relates to colon26-M3.1 carcinoma cells. In words: Inhibitory effect of intravenously-administered HD-2 on cancer metastasis (lung). The class given is in vivo, mice. As for the experimental part: B16-BL6 melanoma cells or colon26-M3.1 carcinoma cells were inoculated into mice and number of metastatic tumor masses appearing in lungs was counted. […] The peak activity was observed a: 1-mg dose with very high anticancer efficacy (86%). […] This indicated oral administration of HD-2 was quite effective for treatment of established cancer.
In this experiment, HD-2 was administered intravenously with dosage less than 500 mg/kg body weight per day.

Setting [2] is: 1 μg intravenous administration +1.
[3] abbreviates: 10 μg intravenous administration +1.
The mark [4] stands for this setting: 10 μg intravenous administration +7.
The mark [5] stands for this setting: 100 μg intravenous administration +1.

For the compound `N.N.[Cl][Pt][Cl]` [cisplatin, reference compound], in the experiment on 3T3-fibroblast cells (3T3, 34 hours of treatment), the “morphological observation of cells” value is on record as “partial necrosis of tumor cells or slowing of tumor growth”. For the same compound, in the experiment on 3T3-fibroblast cells (3T3, after 24 hours of administration), the tumor growth result is “partial inhibition of tumor growth”. Further, the inhibitory rate in experiment [1] (setting [2]) came out at 34.2%; in experiment [1] (setting [3]) it was 87.1%; in experiment [1] (setting [4]), 50.0%; in experiment [1] (setting [5]), 63.2%. For the same compound, the “number of metastatic mass, mean ± SD” value was 102 ± 28 in experiment [1] (setting [2]), 20 ± 13 in experiment [1] (setting [3]), 77 ± 12 in experiment [1] (setting [4]) and 57 ± 22 in experiment [1] (setting [5]).
